In patent US8455523B2, “Compositions and methods for treating hyperlipidemias” (The Research Foundation of State University of New York, priority 2010, dated 2013):

Experiments:
[1] = system: hepatic mRNA of ER stress, inflammation and lipid metabolism genes; assay: Hepatic mRNA quantification (qPCR, XBP-1 splicing) in treated mice; type: in vivo; settings: liver; for Bip, Ire1α, CHOP, PERK and ATF6 mRNA levels: BMS MTPi one week, lovastatin or pioglitazone with MTPi
From the text: FIGS. 6a and 6b. Liver samples from FIG. 16 were used to isolate total mRNA and to quantify expression of different candidate genes. Statistical analyses were as described in FIGS. 16-17.
FIGS. 9a and 9b. C57B/6J mice were fed a western diet for 8 weeks and then treated with MTP inhibitor and other indicated compounds for 8 days as described in FIG. 16. Liver samples were used to isolate mRNA and to quantify mRNA levels with different candidate genes. Stars on MTPi group represent comparison with the control group.
FIG. 16. Age matched wildtype C57/BL6J animals chow fed animals were treated with DMSO (control) or MTP inhibitor (MTPi) for one week. Age matched wildtype C57/BL6J were fed WD for one month and were administered MTPi, Lovastatin, (Lova), Pioglitazone (Pio) or 4-phenylbutyric acid (PBA) every day for one week. All drugs were administered by oral gavage. Animals were sacrificed on day 7 and livers were harvested. mRNA was extracted and subjected to qPCR analysis. * represent comparison DMSO control; # represent comparisons to WD control; @ represent comparisons to WD MTP inhibitor treated animals.
mRNA quantifications and primers used: Total RNA from tissues and cells were isolated using TriZol™ (Invitrogen). The purity and integrity of RNA were assessed by the A260/A280 ratio and 1% agarose gel electrophoresis, respectively. Only the RNAs with ratios more than 1.7 were used for cDNA synthesis. The first strand cDNA was synthesized using Omniscript RT (Qiagen) kit. Briefly, 2 μg of total RNA, 1 μM random primers (Invitrogen), 0.5 mM dNTP solution, and 0.5 U/μl Omniscript Reverse Transcriptase were incubated at 37° C. for 1 h in 20 μl of RT buffer and the reaction was terminated by incubating at 95° C. for 5 minutes. Each reaction of quantitative RT-PCR was carried out in a volume of 20 μl consisting of 5 μl cDNA sample (1:100 dilution of the first strand cDNA sample) and 15 μl of PCR master mix solution containing 1×PCR reaction buffer, 6 mM MgCl2, 200 nM primer pair, 0.025 U/μl HotStar Gold™ DNA polymerase, 200 μM dNTP solution, and 0.3 μl SYBR Green I solution (gPCR™ Core Kit for SYBR Green I, Eurogentec). The PCR was carried out by incubating the reaction mixture first for 10 minute at 95° C. followed by 40 cycles of 15 sec incubations at 95° C. and 1 min at 60° C. in the ABI 7000 SDS PCR machine. The data were analyzed using ΔΔCT method according to manufacturer's instruction and presented as arbitrary units. The primers used in this study were designed with the PrimerExpress 3.0 software (Applied Biosystems, CA) and are presented as Table 1.

[2] = molecular target: T1, MTP (Mus musculus, UniProt O08601); assay: Determination of MTP activity in tissues (liver homogenates of treated mice); type: in vivo; settings: for MTP activity (liver): C57Bl/6J, MTPi 1 mg/kg/day oral one week, lovastatin 50 or pioglitazone 25 mg/kg/day added to MTPi; for MTP specific activity (liver): WD fed C57Bl/6J, drug alone, one week
T1 construct: small pieces (0.1 g) of liver and ˜1-cm segments of proximal small intestine were homogenized; from tissue; host or cells: mouse liver (C57BL/6J; Reversa mice in some experiments); supernatant of ultracentrifuged homogenate
T1 sequence (O08601 22-894): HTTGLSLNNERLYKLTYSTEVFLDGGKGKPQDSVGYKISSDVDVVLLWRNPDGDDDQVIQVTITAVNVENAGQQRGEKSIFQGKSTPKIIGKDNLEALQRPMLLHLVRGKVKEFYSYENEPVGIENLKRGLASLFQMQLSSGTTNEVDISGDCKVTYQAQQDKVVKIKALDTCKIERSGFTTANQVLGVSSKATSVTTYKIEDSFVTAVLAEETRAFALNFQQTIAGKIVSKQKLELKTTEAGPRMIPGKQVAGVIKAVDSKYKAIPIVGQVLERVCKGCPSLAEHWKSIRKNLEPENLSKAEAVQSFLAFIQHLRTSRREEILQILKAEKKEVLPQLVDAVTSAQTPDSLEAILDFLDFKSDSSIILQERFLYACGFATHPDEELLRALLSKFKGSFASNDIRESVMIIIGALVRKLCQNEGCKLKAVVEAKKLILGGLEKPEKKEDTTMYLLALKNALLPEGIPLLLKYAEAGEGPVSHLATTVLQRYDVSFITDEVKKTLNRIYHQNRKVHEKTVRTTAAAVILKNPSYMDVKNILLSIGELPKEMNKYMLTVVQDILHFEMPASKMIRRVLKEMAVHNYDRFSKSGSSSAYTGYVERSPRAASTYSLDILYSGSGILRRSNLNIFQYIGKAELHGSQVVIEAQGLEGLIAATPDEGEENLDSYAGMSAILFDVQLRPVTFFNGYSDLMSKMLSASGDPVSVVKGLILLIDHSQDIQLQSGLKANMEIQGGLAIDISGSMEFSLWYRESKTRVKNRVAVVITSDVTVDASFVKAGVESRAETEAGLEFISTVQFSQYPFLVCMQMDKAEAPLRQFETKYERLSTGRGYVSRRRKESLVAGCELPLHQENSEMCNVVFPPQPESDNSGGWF
T1 sequence (P09103 21-509 partner limits assumed): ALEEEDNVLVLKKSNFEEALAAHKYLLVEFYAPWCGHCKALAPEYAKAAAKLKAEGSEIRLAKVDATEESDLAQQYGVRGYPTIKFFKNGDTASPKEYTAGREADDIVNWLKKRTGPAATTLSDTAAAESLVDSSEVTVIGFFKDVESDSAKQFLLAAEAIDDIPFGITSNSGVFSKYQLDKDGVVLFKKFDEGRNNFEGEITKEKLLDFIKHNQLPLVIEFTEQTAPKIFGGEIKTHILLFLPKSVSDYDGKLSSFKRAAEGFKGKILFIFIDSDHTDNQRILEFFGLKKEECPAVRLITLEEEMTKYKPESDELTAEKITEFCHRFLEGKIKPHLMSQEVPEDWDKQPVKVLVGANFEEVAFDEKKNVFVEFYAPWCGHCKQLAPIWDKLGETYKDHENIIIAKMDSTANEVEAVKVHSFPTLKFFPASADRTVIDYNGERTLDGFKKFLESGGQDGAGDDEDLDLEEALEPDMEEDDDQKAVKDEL
Description: After extensive washes with ice-cold PBS, small pieces (0.1 g) of liver and ˜1-cm segments of proximal small intestine were homogenized with 1 ml of ice-cold 1 mM Tris-HCl, pH 7.6, 1 mM EGTA, and 1 mM MgCl2 buffer in a glass homogenizer. The homogenates were centrifuged (SW55 Ti rotor, 50,000 rpm, 10° C., 1 h), and supernatants were used for MTP assay as described before (41; 42) using a kit (Chylos, Inc.).

[3] = WD five weeks, treatment in last week, MTPi ± pioglitazone or lovastatin
[4] = WD 8 weeks, CP-346086 1 week ± lovastatin or WY14643

| Compound | Bip, Ire1α, CHOP, PERK and ATF6 mRNA levels [1] | MTP activity (liver) [2] | MTP specific activity (liver) [2] | hepatic MTP activity [2, 3] | Ire1α mRNA and spliced form of XBP-1 ([1]; WD 8 weeks, CP-346086 ± lovastatin or WY14643, 8 days) | hepatic MTP activity [2, 4] |
| --- | --- | --- | --- | --- | --- | --- |
| CCc1ccc(CCOc2ccc(CC3SC(=O)NC3=O)cc2)nc1 (racemic) [pioglitazone, (RS)-5-(4-[2-(5-ethylpyridin-2-yl)ethoxy]benzyl)thiazolidine-2,4-dione] | significantly lower | not further affected | no effect | unaffected | – | – |
| Cc1cccc(Nc2cc(Cl)nc(SCC(=O)O)n2)c1C [WY14643] | – | – | – | – | no effect | no further effect |
| CC[C@H](C)C(=O)O[C@H]1C[C@@H](C)C=C2C=C[C@H](C)[C@H](CC[C@@H]3C[C@@H](O)CC(=O)O3)[C@H]21 [lovastatin] | significantly lower | not further affected | no effect | unaffected | – | no further effect |
